Reference: US11505558B1, “Antiviral heterocyclic compounds” (Enanta Pharmaceuticals, Inc., priority 2019, dated 2022)

The compounds below were run on genotype A, "Long" strain RSV (assay: RSV-A assay (CPE, ATPlite readout in Hep-2 cells)). Details: human respiratory syncytial virus, HEp-2, Hep-2 cells, genotype A "Long" strain RSV, MOI 0.1; read-out: Human RSV-A (“Long” strain) EC50.
Type: cell-based
Method in brief: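 Protection from RSV-induced cytopathic effect, measured as ATPlite luminescence after 5 days, gave EC50 values. Assay used genotype A Long strain at MOI 0.1 on Hep-2 cells seeded at 8,000/well in DMEM growth media with 10% FBS; compounds tested as 2-fold dilutions in duplicate.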

Structure (SMILES)	EC50
CCc1ccc2cc(C(=O)NC[C@](O)(c3cc4c(c(-c5ccc(F)cc5)n3)OC[C@]4(C)C(N)=O)C(F)(F)F)cc(O)c2n1 [Example 272]	> 200 nM
CCc1cnc2c(OCC(N)=O)cc(C(=O)NC[C@](O)(c3cc4c(c(-c5ccc(F)c(Cl)c5)n3)OC[C@]4(C)C(N)=O)C(F)(F)F)cc2c1 [Example 369]	< 200 nM
CNC(=O)[C@@]1(C)COc2c1cc([C@@](O)(CNC(=O)c1cc(NC(N)=O)c3ncccc3c1)C(F)(F)F)nc2-c1ccc(F)cc1 [Example 284]	< 200 nM
C[C@]1(C(N)=O)COc2c1cc([C@@](O)(CNC(=O)c1ccc3c(Cl)nccc3c1)C(F)(F)F)nc2-c1ccc(F)cc1 [Example 247]	< 200 nM
COc1cc(C(=O)NC[C@](O)(c2cc3c(c(-c4ccc(F)cc4)n2)OC[C@]3(C)C(N)=O)C(F)(F)F)cc2c(C)ccnc12 [Example 251]	> 200 nM
C[C@]1(C(N)=O)COc2c1cc([C@@](O)(CNC(=O)c1cc(OCCF)c3ncccc3c1)C(F)(F)F)nc2-c1ccc(F)cc1 [Example 277]	< 200 nM
Cc1ccc(-c2ccc(C(=O)NC[C@](O)(c3cc4c(c(-c5ccc(F)cc5)n3)OC[C@]4(C)C(N)=O)C(F)(F)F)cc2OC2CC2)nc1 [Example 157]	> 200 nM
C[C@]1(C(N)=O)COc2c1cc([C@@](O)(CNC(=O)c1ccc(-c3ncccn3)c(OC3CC3)c1)C(F)(F)F)nc2-c1ccc(F)cc1 [Example 163]	> 200 nM
COc1cc(C(=O)NC[C@](O)(c2cc3c(c(-c4ccc(F)cc4)n2)OC[C@]3(C)CN[C@@H](C)C2CC2)C(F)(F)F)ccc1OC1CC1 [Example 19]	< 200 nM
C[C@]1(C(N)=O)COc2c1cc([C@@](O)(CNC(=O)c1ccc(OC3CC3)c(-c3ccncc3)c1)C(F)(F)F)nc2-c1ccc(F)cc1 [Example 119]	> 200 nM
C[C@]1(C(N)=O)COc2c1cc([C@@](O)(CNC(=O)c1ccc(N3CCC3)c(OC3CC3)c1)C(F)(F)F)nc2-c1ccc(F)cc1 [Example 159]	< 200 nM
Cc1cncc(-c2ccc(C(=O)NC[C@](O)(c3cc4c(c(-c5ccc(F)cc5)n3)OC[C@]4(C)C(N)=O)C(F)(F)F)cc2OC2CC2)c1 [Example 142]	> 200 nM
Cc1cnc2c(OCC(F)F)cc(C(=O)NC[C@](O)(c3cc4c(c(-c5ccc(F)cc5)n3)OC[C@]4(C)C(N)=O)C(F)(F)F)cc2c1 [Example 629]	< 200 nM
Cc1cc2cc(C(=O)NC[C@](O)(c3cc4c(c(-c5ccc(F)cc5)n3)OC[C@]4(C)C(N)=O)C(F)(F)F)cc(NC(=O)NC3COC3)c2nc1C [Example 660]	< 200 nM
Cc1cnc2c(OC3CC3)cc(C(=O)NC[C@](O)(c3cc4c(c(-c5ccc(F)cc5)n3)OC[C@]4(C)C(N)=O)C(F)(F)F)cc2c1 [Example 263]	< 200 nM
C[C@]1(C(N)=O)COc2c1cc([C@@](O)(CNC(=O)c1ccc3cccnc3c1)C(F)(F)F)nc2-c1ccc(F)cc1 [Example 233]	> 200 nM
C[C@]1(C(N)=O)COc2c1cc([C@@](O)(CNC(=O)c1ccc3c(c1)NCCO3)C(F)(F)F)nc2-c1ccc(F)cc1 [Example 607]	< 200 nM
C[C@]1(C(=O)NCCc2ccccc2)COc2c1cc([C@@](O)(CNC(=O)c1cc(OC3CC3)c3ncccc3c1)C(F)(F)F)nc2-c1ccc(F)cc1 [Example 486]	> 200 nM
CC(=O)NCCCNC(=O)[C@@]1(C)COc2c1cc([C@@](O)(CNC(=O)c1cc(OC3CC3)c3ncccc3c1)C(F)(F)F)nc2-c1ccc(F)cc1 [Example 455]	< 200 nM
C[C@]1(C(N)=O)COc2c1cc([C@@](O)(CNC(=O)c1nc3cccnc3[nH]1)C(F)(F)F)nc2-c1ccc(F)cc1 [Example 302]	> 200 nM
COc1cc(C(=O)NC[C@](O)(c2cc3c(c(-c4ccc(F)cc4)n2)OCC3(F)C(N)=O)C(F)(F)F)cc2cc(C(F)(F)F)cnc12 (some centres unmarked) [Example 671]	< 200 nM

Structure (SMILES)	EC50
C[C@]1(C(N)=O)COc2c1cc([C@@](O)(CNC(=O)c1cc(NC(=O)NC3COC3)c3ncccc3c1)C(F)(F)F)nc2-c1ccc(F)cc1 [Example 414]	< 200 nM
Cc1ccc2cc(C(=O)NC[C@](O)(c3cc4c(c(-c5ccc(F)cc5)n3)OC[C@]4(C)C(N)=O)C(F)(F)F)cc(O)c2n1 [Example 226]	< 200 nM
C[C@]1(C(N)=O)COc2c1cc([C@@](O)(CNC(=O)c1ccc(-c3cscn3)c(OC3CC3)c1)C(F)(F)F)nc2-c1ccc(F)cc1 [Example 174]	> 200 nM
C[C@]1(C(=O)NCCCc2ccccc2)COc2c1cc([C@@](O)(CNC(=O)c1cc(OC3CC3)c3ncccc3c1)C(F)(F)F)nc2-c1ccc(F)cc1 [Example 487]	> 200 nM
C[C@]1(C(N)=O)COc2c1cc([C@@](O)(CNC(=O)c1ccc3c(c1)NC(=O)CO3)C(F)(F)F)nc2-c1ccc(F)cc1 [Example 313]	> 200 nM
Cc1cnc(-c2ccc(C(=O)NC[C@](O)(c3cc4c(c(-c5ccc(F)cc5)n3)OC[C@]4(C)C(N)=O)C(F)(F)F)cc2OC2CC2)cn1 [Example 167]	> 200 nM
C[C@]1(C(N)=O)COc2c1cc([C@@](O)(CNC(=O)c1cc(OCC(=O)NC3CC3)c3ncccc3c1)C(F)(F)F)nc2-c1ccc(F)cc1 [Example 376]	> 200 nM
C[C@]1(C(N)=O)COc2c1cc([C@@](O)(CNC(=O)c1cc(NC(=O)C3CNC3)c3ncccc3c1)C(F)(F)F)nc2-c1ccc(F)cc1 [Example 401]	> 200 nM
COc1cc(C(=O)NC[C@](O)(c2cc3c(c(-c4ccc(F)cc4)n2)OC[C@]3(C)C(N)=O)C(F)(F)F)ccc1OCCN1CCOCC1 [Example 188]	> 200 nM
C[C@]1(C(N)=O)COc2c1cc([C@@](O)(CNC(=O)c1ccc(-c3ccc(C(F)(F)F)cn3)c(OC3CC3)c1)C(F)(F)F)nc2-c1ccc(F)cc1 [Example 156]	> 200 nM
C[C@]1(C(N)=O)COc2c1cc([C@@](O)(CNC(=O)c1ccc(OC3CC3)c(-c3cnccc3C(F)(F)F)c1)C(F)(F)F)nc2-c1ccc(F)cc1 [Example 139]	> 200 nM
C[C@]1(C(N)=O)COc2c1cc([C@@](O)(CNC(=O)c1cncc(C(N)=O)c1)C(F)(F)F)nc2-c1ccc(F)cc1 [Example 296]	> 200 nM
Cn1c(N)nc2cc(C(=O)NC[C@](O)(c3cc4c(c(-c5ccc(F)cc5)n3)OC[C@]4(C)C(N)=O)C(F)(F)F)ccc21 [Example 447]	> 200 nM
COc1cc(C(=O)NCC(O)(c2cc3c(c(-c4ccc(F)cc4)n2)OC[C@]3(C)C(=O)O)C(F)(F)F)ccc1OCCO (some centres unmarked) [Example 13]	> 200 nM
C[C@]1(C(N)=O)COc2c1cc([C@@](O)(CNC(=O)c1cc(C(F)(F)F)c3ncccc3c1)C(F)(F)F)nc2-c1ccc(F)cc1 [Example 64]	< 200 nM
Cn1c(=O)n(C)c2cc(C(=O)NC[C@](O)(c3cc4c(c(-c5ccc(F)cc5)n3)OC[C@]4(C)C(N)=O)C(F)(F)F)ccc21 [Example 322]	> 200 nM
C[C@]1(C(N)=O)COc2c1cc([C@@](O)(CNC(=O)c1ccc(OC3CC3)c(N3CCCCC3)c1)C(F)(F)F)nc2-c1ccc(F)cc1 [Example 134]	> 200 nM
Cc1ccncc1-c1ccc(C(=O)NC[C@](O)(c2cc3c(c(-c4ccc(F)cc4)n2)OC[C@]3(C)C(N)=O)C(F)(F)F)cc1OC1CC1 [Example 148]	> 200 nM
C[C@]1(C(N)=O)COc2c1cc([C@@](O)(CNC(=O)c1ccc(-c3cncc(C(F)(F)F)c3)c(OC3CC3)c1)C(F)(F)F)nc2-c1ccc(F)cc1 [Example 143]	> 200 nM
Cc1cc(-c2ccc(C(=O)NC[C@](O)(c3cc4c(c(-c5ccc(F)cc5)n3)OC[C@]4(C)C(N)=O)C(F)(F)F)cc2OC2CC2)ccn1 [Example 151]	< 200 nM
